Results: patent publication US6855802B1, “Mutated peptide compounds, derived from hsp70, useful in cancer immunotherapy” (Institut Gustave Roussy, priority 1998, dated 2005)

Tests used:
[1] = tested on: autologous cell line transformed with EBV / 11C2 CTL; experiment: Peptide recognition assay: chromium release, lysis by 11C2 CTL of peptide-incubated autologous EBV-transformed cells; assay type: cell-based, human; conditions: for EC50: 11C2 CTL, E/T 31/1, 51Cr-labeled autologous EBV-transformed cells incubated 1 hour with peptide, 4 h release, read-out: maximum half-lysis (peptide concentration); for recognition by 11C2 CTL: peptides carrying the HLA-A*0201 binding motif, 18 peptides assayed
Method: 2000 cells transformed with EBV and labeled with ^51Cr were incubated for 1 hour in the presence of the indicated hsp70-2 peptides (SEQ ID NOS. 2, 7, 1, and 8) at multiple concentrations. The 11C2 CTL was then added at an effector/target ratio (E/T) of 31/1. Chromium release was measured 4 hours later. The asterisks indicate the mutated amino acids.
The cytotoxicity assays were carried out using the standard 4-hour chromium release assay, as described above, Angevin et al, (1997). In summary, 2×10^3 51Cr-labeled target cells were incubated for 4 hours at 37° C., with the effector cells at various E/T ratios, in a final volume of 200 μl. With regard to lysis inhibition by the mAbs, the target cells were preincubated for two hours in the presence of saturating concentrations of mAb, before adding the effector cells. At the end of the incubation, 40 μl of supernatant were transferred to Lumaplate 96 solid scintillation plates (Packard Instruments, Meriden, Conn.), were dried overnight and counted in a beta-radioactivity counter (Packard Instruments).
In the screening assay, the peptides used were synthesized by “PepSet technology” (Chiron Technologies, Suresnes, France). For the functional assays, the peptides were synthesized on solid phase using F-moc (temporary NH2-terminal protection), and were purified by preparative HPLC. […] The lyophilized peptides were dissolved in […] in water, and conserved at −20° C. The peptides were used in a chromium release assay. 2000 autologous cells transformed with EBV, and labeled with ^51Cr, were incubated for 1 hour at 37° C. on 96-well plates, with diverse concentrations of peptides, before adding 11C2 CTLs.

[2] = tested on: CD8+ cells from HLA-A2-positive donors; experiment: Elispot-IFNγ assay with CD8+ cells and peptide-loaded T2 cells; assay type: cell-based, human; conditions: interferon gamma secretion, no in vitro culturing or cytokines
[3] = target: T1, HLA-A2 (HLA-A*0201) (human); experiment: T2 cell HLA-A2 up-regulation, flow cytometry with mAb MA2.1
T1 construct: whole, on cells; also called HLA-A2.1
Method: T2 cells were incubated at 26° C. for 16 hours in serum-free medium, with or without peptide at a concentration of 20 μm. Next, the peptides (SEQ ID NOS. 2, 7, 1, and 8) were again added, and the cells were incubated at 37° C. […] The amino acid sequences of the peptides are represented. The mutated amino acid is represented by an asterisk.

SLFEGIDIY [SEQ ID NO: 1, mutated hsp70-2 nonapeptide, amino acids 286 to 294, isoleucine at position 293]
EC50 [1]: 500 nM
recognition by 11C2 CTL [1]: recognized
induction of human CD8 lymphocytes from healthy HLA-A2+ individuals [2]: possible to induce

SLFEGIDIYT [SEQ ID NO: 2, mutated hsp70-2 decapeptide 286-295 carrying the mutant isoleucine residue at position 8]
EC50 [1]: 0.05 nM
recognition by 11C2 CTL [1]: recognized
induction of human CD8 lymphocytes from healthy HLA-A2+ individuals [2]: possible to induce

wild-type nonapeptide 286-294: wild-type hsp70-2 nonapeptide, amino acids 286-294 (SLFEGIDFY; listed as Homo sapiens) [reference compound]
recognition by 11C2 CTL [1]: not

SLFEGIDFYT [SEQ ID NO: 7, wild-type hsp70-2 decapeptide 286-295, reference compound]
EC50 [1]: 50 nM
recognition by 11C2 CTL [1]: recognizes

SLFEGIDFY (2, 7, 1 and 8) [wild-type hsp70-2 nonapeptide 286-294]
binding result [3]: binds

B1: mutated hsp70-2 nonapeptide 286-294 SLFEGIDIY (peptide)
peptide: SLFEGIDIY
notes: Synthetic peptide; isoleucine at hsp70 position 293
binding result [3]: binds

SLFEGIDFYT (Synthetic peptide) [wild-type hsp70-2 decapeptide 286-295 SLFEGIDFYT]
binding result [3]: binds

B2: mutated hsp70-2 decapeptide 286-295 SLFEGIDIYT (peptide)
peptide: SLFEGIDIYT
notes: Synthetic peptide; carries the tumour mutation (isoleucine at hsp70 position 293, position 8 of the peptide)
binding result [3]: binds
